Literature values in US20200289553A1, “Compositions and Methods for the Treatment of Metabolic Conditions” (REVEN IP HOLDCo LLC, priority 2017, published 2020).

Tests used:
[1] = 241 osteoporotic women, 45 mg/day vitamin K2 and 150 mg elemental calcium, after two years
[2] = rats, 100 mg/kg body weight daily
[3] = rabbits

CC(C)=CCC/C(C)=C/CC/C(C)=C/CC/C(C)=C/CC1=C(C)C(=O)c2ccccc2C1=O [vitamin K2]
lumbar bone mineral density [1]: maintain lumbar bone mineral density | fracture incidence ([1]; 30% in the control group): 10% | calcium in kidneys and aorta induced by megadose of synthetic vitamin D [2]: inhibited the increase in calcium in both kidneys and aorta | atherosclerotic plaque progression ([3]; 1-10 mg/kg daily for 10 weeks): inhibited the atherosclerotic plaque progression in the aorta and pulmonary arteries | total cholesterol levels, lipid peroxidation, ester cholesterol deposition in the aorta and factor X activity in plasma ([3]; compared to the control group): seen to reduce
